How the values were obtained:
[1] = system: layer 5 pyramidal neurons; assay: Electrophysiology, current clamp of layer 5 pyramidal neurons in mPFC slices; format: cell-based, mouse; conditions: bath application, Compound D at 10 μM; for after hyperpolarization (AHP) / resting membrane potential (RMP): carbachol 10 M [sic] for 10 min; for after depolarization (ADP): carbachol for 10 min as printed
Description: Experiments were performed on coronal brain slices of the medial prefrontal cortex (mPFC) from 4-week-old male C57BL/6 mice. The animals were quickly sacrificed and the brain was placed in an ice-cold NMDG artificial cerebrospinal fluid (ACSF) (in mM): NMDG, 92; KCl, 2.5; CaCl2, 0.5; NaH2PO4, 1.25; MgSO4, 6; NaHCO3, 30; glucose, 25; HEPES, 20; thiourea, 2; Na-ascorbate, 5; and Na-pyruvate, 3) (Ting J. T. et al., Methods Mol Biol. 2014; 1183:221-42). Slices were cut at a thickness of 300 μm with a vibroslicer. Slices were initially transferred to a holding chamber containing NMDG aCSF for 15 minutes at 34° C. Slices were then transferred to a room temperature holding chamber for at least 1 h containing HEPES aCSF (in mM): NMDG, 92; KCl, 2.5; CaCl2, 2; NaH2PO4, 1.25; MgSO4, 2; NaHCO3, 30; glucose, 25; HEPES, 20; thiourea, 2; Na-ascorbate, 5; and Na-pyruvate, 3). Subsequently, the slices were transferred to the recording chamber, in which they were submerged and perfused with aCSF containing the following (in mM): NaCl, 124; KCl, 5; NaH2PO4, 1.2; MgCl2, 1.5; CaCl2, 2.5; glucose, 10; and NaHCO3, 24), at a flow rate of 1-2 ml/min. All buffers were continuously bubbled and saturated with carbogen (95% O2/5% CO2). Current clamp recordings were carried out at 32-33° C. from visually identified pyramidal neurons from layer 5 using a borosilicate pipette (5-7 MΩ) filled with intracellular solution (in mM): K-gluconate, 135; KCl, 4; HEPES, 10; EGTA, 0.2; MgATP, 4; Na2GTP, 0.3; pH 7.3 with KOH). Signals were acquired using a Multiclamp 700B amplifier and a Digidata 1440A interface board (Molecular Devices Japan, Tokyo, Japan), filtered between 2 kHz, sampled at 10 kHz, and analyzed with pClamp10 software.
M1Rs are known to contribute to the three cholinergic effects in layer 5 pyramidal neurons: the resting membrane potential (RMP) and physiological responses such as the after hyperpolarization (AHP) the after depolarization (ADP) that typically follow brief periods of action potential generation (Gulledge et al., J. Neurosci. 2009 Aug. 5; 29(31): 9888-9902). To investigate effects of M1 PAMs with different n value on brain function, cholinergic excitation by Compound D and Compound C were assessed. First, the muscarinic receptor agonist carbachol ([…] for 10 min) was tested by bath application (FIG. 13-A, FIG. 13-B, FIG. 13-C).

M3R = M3R (Homo sapiens, UniProt P20309); assay: Ca2+ flux assay in CHO-K1 cells expressing human M3R; format: cell-based; design: expressed in transfected cells; host or cells: CHO-K1; conditions: read-out: IP for M3R
M3R, sequence (P20309 whole entry): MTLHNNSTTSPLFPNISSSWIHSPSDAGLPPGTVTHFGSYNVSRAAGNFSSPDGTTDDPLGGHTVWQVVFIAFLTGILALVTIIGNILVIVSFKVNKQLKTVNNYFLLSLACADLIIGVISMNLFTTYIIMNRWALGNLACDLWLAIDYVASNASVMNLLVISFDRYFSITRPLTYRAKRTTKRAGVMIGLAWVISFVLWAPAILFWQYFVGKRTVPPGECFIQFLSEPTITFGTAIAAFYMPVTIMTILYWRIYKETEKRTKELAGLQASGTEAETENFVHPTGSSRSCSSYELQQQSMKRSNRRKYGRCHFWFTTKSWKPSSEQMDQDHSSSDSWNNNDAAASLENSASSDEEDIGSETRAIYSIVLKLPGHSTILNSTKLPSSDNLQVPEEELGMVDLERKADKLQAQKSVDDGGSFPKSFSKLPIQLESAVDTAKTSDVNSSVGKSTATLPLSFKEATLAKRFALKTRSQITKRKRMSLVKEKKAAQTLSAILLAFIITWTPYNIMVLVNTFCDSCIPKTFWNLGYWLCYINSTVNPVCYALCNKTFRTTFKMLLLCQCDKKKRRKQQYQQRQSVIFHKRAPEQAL

M4R = target: T1, M4R (Homo sapiens, UniProt P08173); assay: Ca2+ flux assay in CHO-K1 cells expressing human M4R; format: cell-based; design: expressed in transfected cells; host or cells: CHO-K1; conditions: read-out: IP for M4R
T1 sequence (P08173 1-479): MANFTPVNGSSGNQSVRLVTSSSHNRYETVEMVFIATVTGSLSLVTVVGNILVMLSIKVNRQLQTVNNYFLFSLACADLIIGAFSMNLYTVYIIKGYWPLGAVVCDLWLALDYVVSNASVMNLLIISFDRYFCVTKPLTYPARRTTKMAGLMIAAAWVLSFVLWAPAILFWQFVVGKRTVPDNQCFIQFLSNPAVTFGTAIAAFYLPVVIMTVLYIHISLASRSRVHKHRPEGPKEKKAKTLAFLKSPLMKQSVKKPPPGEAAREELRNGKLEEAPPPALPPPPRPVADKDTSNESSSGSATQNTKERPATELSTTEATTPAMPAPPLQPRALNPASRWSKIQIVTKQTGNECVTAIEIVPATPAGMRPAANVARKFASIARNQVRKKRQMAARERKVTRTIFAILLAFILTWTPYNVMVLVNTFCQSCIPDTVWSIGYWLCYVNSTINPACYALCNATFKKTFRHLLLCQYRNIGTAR

M5R = target: T2, M5R (Homo sapiens, UniProt P08912); assay: Ca2+ flux assay in CHO-K1 cells expressing human M5R; format: cell-based; design: expressed in transfected cells; host or cells: CHO-K1; conditions: read-out: IP for M5R
T2 sequence (P08912 1-532): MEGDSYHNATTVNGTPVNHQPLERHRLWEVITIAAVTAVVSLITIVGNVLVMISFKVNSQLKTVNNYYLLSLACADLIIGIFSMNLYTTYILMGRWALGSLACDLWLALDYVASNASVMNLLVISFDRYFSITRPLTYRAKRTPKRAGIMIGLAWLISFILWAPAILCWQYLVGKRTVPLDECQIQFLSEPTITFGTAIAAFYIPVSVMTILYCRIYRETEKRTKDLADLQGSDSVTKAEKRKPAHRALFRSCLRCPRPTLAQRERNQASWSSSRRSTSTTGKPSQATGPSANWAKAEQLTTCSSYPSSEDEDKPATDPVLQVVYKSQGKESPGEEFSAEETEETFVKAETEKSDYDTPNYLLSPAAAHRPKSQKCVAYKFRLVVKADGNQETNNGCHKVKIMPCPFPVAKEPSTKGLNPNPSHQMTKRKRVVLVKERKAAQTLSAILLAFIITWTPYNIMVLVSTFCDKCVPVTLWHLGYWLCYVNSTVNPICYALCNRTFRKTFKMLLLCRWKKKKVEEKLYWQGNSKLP

[2] = system: Arc mRNA expression in mouse hippocampus; assay: Arc mRNA expression in hippocampus (RT-PCR, PD marker); format: in vivo; conditions: 90 min after treatment
Description: For in vivo pharmacodynamics (PD) marker analysis, mice were sacrificed by decapitation at 90 min after administration of Compound A or Compound B. Hippocampal tissues were isolated from the brain. These tissues were stored at -80° C. until RNA extraction. Total RNA from individual tissues was extracted using QIAzol Lysis Reagent and the RNeasy kit (Quiagen, Hilden, Germany) following the manufacturer's instruction. RT-PCR was carried out using ABI PRISM 7900HT sequence detection system (Life Technologies, Bedford, MA) and TagMan reagents (Eurogentec, Seraing, Belgium). RNA quantities were normalized using glyceraldehyde-3-phosphate dehydrogenase (GAPDH) mRNA transcripts according to manufacturer's instruction. The following primers were used for mouse Arc analysis: forward primer, [NT] ID NO:3); reverse primer, [NT] ID NO:4), TagMan probe, [NT] ID NO:5). The primers used for mouse Gapdh analysis were TagMan Rodent GAPDH Control Reagent, VIC probe, purchased from ABI (Applied biosystems-Life Technologies, Waltham, MA).

Structure (SMILES)	after hyperpolarization (AHP) [1]	resting membrane potential (RMP) [1]	after depolarization (ADP) [1]	EC50 (M3R) [µM]	EC50 (M4R) [µM]	EC50 (M5R) [µM]	increase in Arc mRNA expression level in mouse hippocampus ([2]; 10-100 mg/kg p.o.)	Arc mRNA expression level in mouse hippocampus ([2]; 30 mg/kg p.o.)	Arc mRNA expression level in mouse hippocampus ([2]; 3-30 mg/kg p.o.)
Cn1cc(-c2ccc(Cc3cc4c(=O)n([C@H]5CCCC[C@@H]5O)cnc4c4ccccc34)cn2)cn1 [Compound C, 3-((1S,2S)-2-hydroxycyclohexyl)-6-((6-(1-methyl-1H-pyrazol-4-yl)pyridin-3-yl)methyl)benzo[h]quinazoline-4(3H)-one, reference compound]	suppressed the AHP	generated subthreshold changes in the RMP	generated an ADP	> 1	> 1	> 1	–	–	–
Cn1cc(-c2ccc(CN3Cc4cccc(Oc5c(F)cccc5C#N)c4C3=O)cc2)cn1 [Compound B, 3-fluoro-2-((2-(4-(1-methyl-1H-pyrazol-4-yl)benzyl)-3-oxo-2,3-dihydro-1H-isoindol-4-yl)oxy)benzonitrile]	–	–	–	–	–	–	about 2 fold	–	–
Cc1c(Cc2ccc(-n3cccn3)cc2)cc2c(c1F)CN([C@H]1COCC[C@@H]1O)C2=O [Compound D, 4-fluoro-2-[(3S,4S)-4-hydroxytetrahydro-2H-pyran-3-yl]-5-methyl-6-[4-(1H-pyrazol-1-yl)benzyl]-2,3-dihydro-1H-isoindol-1-one]	not depolarization of RMP and suppression of AHP	not depolarization of RMP	produced significant ADP generation	> 10	> 10	> 10	–	–	–
Cn1ccc(-c2ccc(CN3Cc4cccc(O[C@H]5CCCC[C@@H]5O)c4C3=O)cc2)n1 [Compound A, 7-(((1S,2S)-2-hydroxycyclohexyl)oxy)-2-(4-(1-methyl-1H-pyrazol-3-yl)benzyl)isoindolin-1-one]	–	–	–	–	–	–	–	significant increase	enhanced the expression level of Arc mRNA in a dose-dependent manner

Source: patent US12298319B2, “Method for measuring alpha value of muscarinic M1 receptor positive allosteric modulators” (Takeda Pharmaceutical Company Limited, priority 2017, dated 2025)
